Laboratory results published in patent US20220152028A1, “COMBINATION DRUG TREATMENT FOR HUMAN CYTOMEGALOVIRUS” (Microbiotix, Inc., priority 2019, published 2022).

What was measured:
HCMV DNA polymerase UL54 = HCMV DNA polymerase UL54 (Human cytomegalovirus, UniProt P08546); details: higher than GCV-TP; cited from earlier work
HCMV UL56 mutant C325Y = test: SEAP reporter susceptibility assay in ARPEp cells, UL56 C325Y; format: cell-based, human cytomegalovirus
Description: (§1) In order to test the effect of filociclovir on letermovir-resistant strains, we used 4 HCMV UL56 mutants encountered in clinical practice: V231L, V236M, C325F and C325Y, the latter 2 of which commonly emerged to confer absolute letermovir resistance (Grantham et al., Biol. Blood Marrow Transplant. 25: S344-S345 (2019); Turner et al., Antimicrob. Agents Chemother., 63(3): e02337-18 (2019)).
(§2) These UL56 amino acid substitutions were introduced into the bacterial artificial chromosome (BAC) clone BD2 of HCMV laboratory strain AD169 modified with a secreted alkaline phosphatase (SEAP) reporter gene, as previously described (Chou, S., Antimicrob. Agents Chemother., 59: 6588-6593 (2015)). The mutagenized BAC clones were transfected into modified retinal epithelial (ARPEp) cells and the recovered infectious recombinant viruses were then genotyped and phenotyped as previously described (Chou et al., Antimicrob. Agents Chemother., 62(9): e00922-18 (2018)).
(§3) Control strains included a baseline strain of wild-type UL56 and a UL97 M460V mutant that is resistant to […]. For susceptibility assays, calibrated viral inocula were added to 24-well plate cultures of ARPEp cells and incubated under a series of filociclovir concentrations, and the concentrations required to reduce SEAP activity by 50% (EC50) at 6 days were determined in duplicate assays on each of 3 to 5 setup dates.

HCMV (strain AD169) = test: Plaque reduction assay in HFF cells infected with HCMV strain AD169; format: cell-based, human cytomegalovirus; details: Human betaherpesvirus 5, 216 h, plaque count after 9 days, read-out: EC50, compound tested separately
Method: We examined the in vitro anti-HCMV (strain AD169; ATCC #VR-538) activity of filociclovir and letermovir both separately and as triplicate combinations at a concentration range of 0.0064-100 μM, and 0.0064-100 nM, respectively.
Monolayers of human foreskin fibroblasts (HFF cells; ATCC #SCRC-1041) were grown in 1 ml of DMEM (Corning #10-013-CM) containing 10% heat-inactivated fetal bovine serum (Gibco #A38402-01) and 1% penicillin-streptomycin solution (Hyclone #SV30010) in 24-well plates and infected with 100 plaque forming units (PFUs) of HCMV. Following incubation for 1 hr at 37° C., the virus was aspirated and replaced with MEM (Corning #50-010-PB) containing 1% methyl cellulose (Sigma #M-0521) and the various concentrations of filociclovir and letermovir were added as set forth above. A set of wells, designated as non-treated controls, received neither of the two compounds.
Infected plates were incubated for 9 days at 37° C., then fixed and stained with crystal violet stain (0.1% in 20% methanol). The number of plaques in each well was counted and the level of synergism was assessed using MacSynergy™ II (Prichard and Shipman 1990, supra), which provides an overall evaluation of the deviation from the theoretical additive effect of both drugs based on individual dose-response curves.

[1] = tested on: HCMV control strain UL56 wt; test: SEAP reporter susceptibility assay in ARPEp cells, baseline strain; format: cell-based, human cytomegalovirus; details: Human betaherpesvirus 5, 144 h, read-out: Mean EC50
Description: as §2, §3

HCMV UL56 mutant V236M = test: SEAP reporter susceptibility assay in ARPEp cells, UL56 V236M; format: cell-based, human cytomegalovirus
Description: as §1, §2, §3

[2] = tested on: HCMV UL56 mutants (V231L, V236M, C325F, C325Y); test: SEAP reporter susceptibility assay in ARPEp cells, UL56 mutants as a group; format: cell-based, human cytomegalovirus; details: Human betaherpesvirus 5, read-out: mean EC50 values against the UL56 mutants tested
Description: as §1, §2, §3

HCMV UL56 mutant C325F = test: SEAP reporter susceptibility assay in ARPEp cells, UL56 C325F; format: cell-based, human cytomegalovirus
Description: as §1, §2, §3

HCMV UL56 mutant V231L = test: SEAP reporter susceptibility assay in ARPEp cells, UL56 V231L; format: cell-based, human cytomegalovirus
Description: as §1, §2, §3

HCMV UL97 M460V mutant = test: SEAP reporter susceptibility assay in ARPEp cells, UL97 M460V; format: cell-based, human cytomegalovirus
Description: as §2, §3

HCMV = details: literature statement; cited from earlier work
[3] = Human betaherpesvirus 5, 144 h, read-out: Mean EC50

Chain of HCMV DNA polymerase UL54 (P08546 whole entry): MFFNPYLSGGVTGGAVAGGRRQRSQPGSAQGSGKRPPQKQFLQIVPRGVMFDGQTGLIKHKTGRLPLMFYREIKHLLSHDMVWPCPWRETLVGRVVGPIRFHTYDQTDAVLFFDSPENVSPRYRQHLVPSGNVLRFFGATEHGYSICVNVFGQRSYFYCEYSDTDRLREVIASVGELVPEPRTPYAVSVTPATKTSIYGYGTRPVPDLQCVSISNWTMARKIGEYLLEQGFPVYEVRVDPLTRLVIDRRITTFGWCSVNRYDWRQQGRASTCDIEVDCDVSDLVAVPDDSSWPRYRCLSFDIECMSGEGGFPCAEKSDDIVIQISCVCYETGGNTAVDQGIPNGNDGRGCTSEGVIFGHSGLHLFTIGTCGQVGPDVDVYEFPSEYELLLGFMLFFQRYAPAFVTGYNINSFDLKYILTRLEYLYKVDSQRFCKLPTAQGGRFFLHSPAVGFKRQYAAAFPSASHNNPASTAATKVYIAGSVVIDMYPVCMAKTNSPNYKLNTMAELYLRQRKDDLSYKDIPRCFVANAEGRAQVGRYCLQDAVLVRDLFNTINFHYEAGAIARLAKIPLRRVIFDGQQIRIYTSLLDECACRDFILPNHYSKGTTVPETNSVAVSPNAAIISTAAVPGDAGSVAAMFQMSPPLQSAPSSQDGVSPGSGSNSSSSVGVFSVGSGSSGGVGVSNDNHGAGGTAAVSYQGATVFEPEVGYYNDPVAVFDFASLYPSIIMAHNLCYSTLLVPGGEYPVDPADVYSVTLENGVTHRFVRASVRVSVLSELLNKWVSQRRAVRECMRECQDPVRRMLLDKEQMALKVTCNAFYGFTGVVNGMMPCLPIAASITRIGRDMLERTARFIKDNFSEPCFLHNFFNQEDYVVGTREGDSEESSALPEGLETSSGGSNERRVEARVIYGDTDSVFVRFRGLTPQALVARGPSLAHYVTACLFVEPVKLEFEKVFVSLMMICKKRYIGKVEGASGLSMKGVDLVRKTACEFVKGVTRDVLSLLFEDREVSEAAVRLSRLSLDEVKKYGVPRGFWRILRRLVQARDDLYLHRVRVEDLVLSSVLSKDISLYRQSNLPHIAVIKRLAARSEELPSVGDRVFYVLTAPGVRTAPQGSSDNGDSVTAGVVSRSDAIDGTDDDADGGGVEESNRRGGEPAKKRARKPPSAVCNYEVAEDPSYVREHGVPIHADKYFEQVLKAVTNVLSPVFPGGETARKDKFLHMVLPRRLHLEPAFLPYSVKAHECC

Row | SMILES | affinity to HCMV DNA polymerase UL54 relative to GCV-TP (HCMV DNA polymerase UL54) | EC50 (HCMV UL56 mutant C325Y; [3]) [nM] | Ratio = EC50 of mutant/EC50 of wild type control (HCMV UL56 mutant C325Y; UL56 C325Y) | EC50 (HCMV (strain AD169)) [nM] | EC50 [1] [nM] | EC50 (HCMV UL56 mutant V236M; [3]) [nM] | Ratio = EC50 of mutant/EC50 of wild type control (HCMV UL56 mutant V236M; UL56 V236M) | EC50 [2] [nM] | EC50 (HCMV UL56 mutant C325F; [3]) [nM] | Ratio = EC50 of mutant/EC50 of wild type control (HCMV UL56 mutant C325F; UL56 C325F) | EC50 (HCMV UL56 mutant V231L; [3]) [nM] | Ratio = EC50 of mutant/EC50 of wild type control (HCMV UL56 mutant V231L; UL56 V231L) | EC50 (HCMV UL97 M460V mutant; [3]) [nM] | Ratio = EC50 of mutant/EC50 of wild type control (HCMV UL97 M460V mutant; UL97 M460V) | EC50 values (HCMV)
1 | Nc1nc2c(ncn2/C=C2/CC2(CO)COP(=O)(O)OP(=O)(O)OP(=O)(O)O)c(=O)[nH]1 (stereo not shown) [FCV-TP, FCV triphosphate] | about 10 fold |  |  |  |  |  |  |  |  |  |  |  |  |  | 
2 | Nc1nc2c(ncn2/C=C2/CC2(CO)CO)c(=O)[nH]1 [Filociclovir, (Z)-9-{[2,2-bis-(hydroxymethyl)cyclopropylidene]methyl}guanine] |  | 380 | 0.89 | 550 | 430 | 350 | 0.81 | 290 to 380 | 350 | 0.82 | 290 | 0.69 | 2030 | 4.8 | 
3 | COc1cccc(N2CCN(C3=Nc4c(F)cccc4[C@H](CC(=O)O)N3c3cc(C(F)(F)F)ccc3OC)CC2)c1 [letermovir, 2-[(4S)-8-fluoro-2-[4-(3-methoxyphenyl)piperazin-1-yl]-3-[2-methoxy-5-(trifluoromethyl)phenyl]-4H-quinazolin-4-yl]acetic acid, reference compound] |  |  |  | 3 |  |  |  |  |  |  |  |  |  |  | nanomolar range
